Data taken from article PMC11852064 (Antibiotics, 2025).
Like-named read-outs stand apart in the source and are kept apart here.

Legend:
[1] = cited from earlier work
[2] = Population pharmacokinetic analysis of multidose DAL in adult patients (NONMEM); assay type: in vivo, human
Source text: This prospective/retrospective study was approved by Liguria Territorial Ethics Committee (DALT DRUM Study, Registration number 82/2023—DB id 13014) and carried out from February 2023 to February 2024 at Ente Ospedaliero Ospedali Galliera, Genoa, Italy. Adult patients referred to the Department of Infectious Diseases with documented or suspected Gram-positive infection who failed primary antimicrobial therapy and were prescribed a multidose DAL regimen as a rescue treatment were deemed eligible for inclusion and after signing the informed consent they were enrolled in the study.
To avoid impacting patient lifestyle and routine clinical practice, a sparse sampling strategy was also adopted for outpatients needing blood tests at the convenience of the prescribing physician.
Pharmacokinetic data were analyzed according to a nonlinear mixed-effects modeling approach using NONMEM v7.5 with Pirana modeling workbench, whilst R, version 4.3.2, was used for data formatting and graphical and statistical summaries. No data transformation was applied to PK concentrations prior to the analysis.
From an initial model (one-compartment, first-order elimination with proportional error model), different possible combinations of structural and stochastic models, as well as the inter-individual variability (IIV) of PK parameters were assessed. The effect of several covariates, previously screened for their influence on the PK parameters of the drug under study, was then included in a stepwise manner with backward elimination in the final model. Continuous covariates (age, weight, height, serum albumin, creatinine, creatine clearance, PCR) were centered on their median value and their effect was evaluated by linear and non-linear relationships. Improvement between models was judged based on a decrease in objective function value (OFV) greater than 3.84 units (p < 0.05) using the FOCE-I estimation method, whilst an increase by more than 6.64 units (p < 0.01) upon removal was adopted during backward exclusion. Additionally, during the initial model-building process outliers were detected and excluded from the analysis based on visual examination of data points identified with conditional weighted residuals (CWRES) > 3. To evaluate the influence of outliers, a sensitivity analysis was conducted in which the updated popPK model was run with and without outliers. If a statistically significant change in OFV or in the estimation of key fixed-effects parameters was observed, outliers were considered influential in the modeling steps and commented out.
The predictive performance of the PK models was assessed by appropriateness of the relative standard error (RSE < 30%), graphically by means of classical key diagnostic plots, prediction-corrected visual predictive check (pcVPC), and by inspecting bootstrap results from 1000 resampled datasets. Finally, eta-shrinkage values were calculated to identify and quantify model overfitting.

S. aureus = settings: ref 14; cited from earlier work
[3] = cited from earlier work; remark: listed apart in the source
[4] = design: method as in earlier work; settings: ref 40, 41; cited from earlier work
[5] = elimination via combination of renal and nonrenal clearance; cited from earlier work
[6] = tested on: Staphylococcus aureus, Staphylococcus epidermidis, Enterococcus spp. vancomycin-sensitive (VSE), or vancomycin-resistant Van B biofilms; settings: ref 37, 38; cited from earlier work
Source text: In some instances, TDM ...

[7] = bootstrap, 1000 resampled datasets
[8] = final two-compartment popPK model, allometric body weight, 30 adult patients, CLcr > 30 mL/min

| Substance | duration of sufficient tissue exposure [1] [weeks] | CL, bootstrap median (CI 5-95%) [2, 7] | Q, bootstrap median (CI 5-95%) [2, 7] | V1, bootstrap median (CI 5-95%) [2, 7] | V2, bootstrap median (CI 5-95%) [2, 7] | Q, inter-compartmental clearance, estimate [2, 8] [L/h] | V1, central volume of distribution, estimate [2, 8] [L] | V2, peripheral volume of distribution, estimate [2, 8] [L] | CL, total body clearance, estimate ([2]; human, in vivo, iv, 1500 mg) [L/h] | Former EUCAST clinical breakpoint of susceptibility (MIC) (S. aureus) [µg/mL] | Free fraction of DAL in plasma ([3]; as reported on the label) [%] | Binding to plasma proteins ([3]; ref 5) [%] | Binding to plasma proteins ([3]; ref 28) [%] | EUCAST/USCAST clinical breakpoint MIC [4] [µg/mL] | Renal share of elimination (renal clearance) [5] | Activity in vitro against established biofilms [6] |
| --- | --- | --- | --- | --- | --- | --- | --- | --- | --- | --- | --- | --- | --- | --- | --- | --- |
| Dalbavancin [listing 1 of 2 here] | 8 |  |  |  |  |  |  |  |  |  |  |  |  |  |  |  |
| Dalbavancin [listing 2 of 2 here] |  | 0.0272 (0.0251–0.0294) L/h | 0.0223 (0.0175–0.02936) L/h | 3.6 (3.4–3.8) L | 6.5 (5.6–7.5) L | 0.0225 | 3.6 | 6.4 | 0.0273 | 0.125 | 7 | 93 | 93 | 0.25 | approximately 45% | potent activity |
